Measurements taken from patent publication US8642633B2, “Di-substituted amides for enhancing glutamatergic synaptic responses” (Cortex Pharmaceutical, Inc., priority 2007, dated 2014).

Experiments:
[1] = test system: d-amphetamine stimulated locomotion in mice; experiment: Inhibition of d-amphetamine stimulated locomotion; assay type: in vivo; settings: Mus musculus, ip, 18 mpk i.p., d-amphetamine 2 mg/kg
Description: B. Behavioral Testing: Inhibition of d-Amphetamine Stimulated Locomotion
The ability of the invention compounds to inhibit d-Amphetamine stimulated locomotor activity was assayed according to the following procedure. Male CD1 mice, 25-30 gm body weight, were brought into the experimental room and allowed at least 30 min of acclimation. Each mouse was placed into the testing enclosure with an infrared beam array that automatically monitors the animal's activity. Mice were habituated in the testing enclosure for 20 min, and then returned to their home cage. Mice were dosed intraperitoneally with test compound in appropriate vehicle 5 minutes before d-Amphetamine injection (2 mpk). Ten minutes after d-Amphetamine injection, mice were tested for locomotor activity for a total of […]. The data was computer collected and expressed as “arbitrary movement units.” All data were analyzed by comparing the groups treated with the test compound to the vehicle control group. The data shown is the % inhibition of hyperactivity induced by acute administration of 2 mg/kg d-amphetamine in mice. The compounds tested produced a statistically significant inhibition of d-amphetamine stimulated locomotion.
Male CD1 mice, 25-30 gm body weight, were brought into the experimental room and allowed at least 30 min of acclimation. Each mouse was placed into the testing enclosure with an infrared beam array that automatically monitors the animal's activity. Mice were habituated in the testing enclosure for 20 min, and then returned to their home cage. Mice were dosed intraperitoneally with test compound in appropriate vehicle 5 minutes before d-Amphetamine injection. Ten minutes after d-Amphetamine injection, mice were tested for locomotor activity for a total of 15 minutes. The data was computer collected and expressed as “arbitrary movement units.” All data were analyzed by comparing the groups treated with the test compound to the vehicle control group.

[2] = test system: AMPA receptor; experiment: In vivo electrophysiology: field EPSP amplitude in the dentate gyrus of anesthetized animals; parameters: species or system rat; settings: rat, 10mpk i.p.
Description: A. Enhancement of AMPA Receptor Function In Vivo.
Synaptic responses mediated by AMPA receptors are increased according to the method of the invention, using the compounds described herein.
(§1) The electrophysiological effects of the invention compounds were tested in vivo in anesthetized animals according to the following procedures. Animals are maintained under anesthesia by phenobarbital administered using a Hamilton syringe pump. Stimulating and recording electrodes are inserted into the perforant path and dentate gyrus of the hippocampus, respectively. Once electrodes are implanted, a stable baseline of evoked responses are elicited using single monophasic pulses (100 μs pulse duration) delivered at 3/min to the stimulating electrode. Field EPSPs are monitored until a stable baseline is achieved (about 20-30 min), after which a solution of test compound is injected intraperitoneally and evoked field potentials are recorded. Evoked potentials were recorded for approximately 2 h following drug administration or until the amplitude of the field EPSP returns to baseline. In the latter instance, it is common that an iv administration is also carried out with an appropriate dose of the same test compound. Invention compounds were assayed in the in vivo electrophysiology assay described above and data for representative test compounds is shown in column 1 in Table 1.
The electrophysiological effects of invention compounds were tested in vivo in anesthetized animals according to the following procedures.
as §1, with “Animals” for “The electrophysiological effects of the invention compounds were tested in vivo in anesthetized animals according to the following procedures. Animals”, “are” for “were”, “compound.” for “compound. Invention compounds were assayed in the in vivo electrophysiology assay described above and data for representative test compounds is shown in column 1 in Table 1.”

Row | melting point | Structure (SMILES) | inhibition in vivo at 18 mg/kg [1] | In vivo Electrophysiology: % increase in the amplitude of the field EPSP in the dentate gyrus of rat [2]
1 | 117 to 118 °C | CN(C(=O)c1ccc2nonc2c1)C1CC=C(F)CC1 (stereo not drawn) [Example 41, N-(4-fluorocyclohex-3-en-1-yl)-N-methyl-[2,1,3]-benzoxadiazole-5-carboxamide] | 67% | 18%
2 | 175 to 176 °C | CN(C(=O)c1ccc2nonc2c1)[C@H]1CC[C@](C)(O)CC1 [Example 45, N-(trans-4-hydroxy-4-methylcyclohexyl)-N-methyl-[2,1,3]-benzoxadiazole-5-carboxamide] | 122% | 19%
